In patent US10732172B1, “Methods, systems, and compositions for determining blood clot formation, and uses thereof” (President and Fellows of Harvard College, priority 2015, dated 2020):
“Also recorded” adds a separate entry of the source.

How the values were obtained:
Assay type in all cases: cell-based, human
HUVECs = assay: Immunostaining of TNF-α stimulated endothelium in microchannel
Method: The microfluidic devices are left overnight at 37° C. in a 5% carbon dioxide (“CO2”) incubator, after which they are rinsed with Endothelial Growth Medium-2 (“EGM-2”) from Lonza. Human Umbilical Vein Endothelial Cells (“HUVEC”) from a mixed donor, by Lonza, are kept in culture and suspended at 12.5 million cells/milliliter (“mL”) in EGM-2, after confluence. The suspension is introduced into the collagen-coated microchannels, after which the microfluidic devices are incubated upside down for 20 minutes. A fresh HUVEC suspension is then introduced in the microchannels, after which the microfluidic devices are incubated for eight hours to promote cell attachment across the channel. The microchannels are, then, rinsed with EGM-2, sometimes containing a freshly prepared solution of tumor necrosis factor (“TNF-α”), which is a recombinant from E. coli from Sigma. Antibodies against intercellular adhesion molecule-1 (“ICAM-1”) and vascular adhesion molecule-1 (“VCAM-1”), tissue factor (from Santa Cruz), VWF (from Abcam) and VE-Cadherin (from Santa Cruz) were perfused into the microfluidic devices after fixing the endothelium with 2% paraformaldehyde for ten minutes, incubating the endothelium for three hours, and counterstaining with a secondary fluorescent IgG antibody for three hours.
(§1) Multiple endothelial adhesion molecules are involved in the recruitment of blood cells and platelets in thrombosis in vivo. In previous studies, treatment of a living endothelium cultured in microfluidic channels with TNF-α results in an increase in expression of surface adhesion molecules, such as ICAM-1 and VCAM-1 within four hours after addition. To explore whether a fixed endothelium retains expression of these and other surface molecules that could potentially exacerbate thrombosis, the endothelium is first activated in the device by adding increasing doses of TNF-α, e.g., 0, 5, and 100 nanograms/millliter (“ng/ml”), for approximately 18 hours. The endothelium cells are fixed with 4% paraformaldehyde in phosphate-buffered saline (“PBS”) for 15 minutes at room temperature, are rinsed three times with PBS, and, then, stored in PBS at 4° C. in a humid environment.
Human umbilical vein endothelial cells (HUVECs, Lonza) were cultured in Endothelial Growth Medium-2 (EGM-2, Lonza) and used between passages 3 and 7. Before seeding HUVECs in the devices, the microchannels were pre-treated with 1% (3-aminopropyl)-trimethoxysilane in phosphate-buffered saline (PBS) for 10 min, flushed sequentially with 70% ethanol in water and 100% ethanol, and then incubated at 80° C. for two hours before rat tail collagen I (100 μg/ml in PBS; BD Biosciences) was introduced in the channels. Some of the devices were used with the collagen coating alone (without cells) after incubation overnight at 37° C. and flushing of the channels with EGM-2. In other studies for comparison, HUVECs (12.5×10^6 cells/ml) were introduced into the collagen-coated channels and incubated for 20 min at 37° C. to promote cell attachment before a second similar HUVEC suspension was then introduced and the devices were incubated upside down for an additional 20 min to seed the cells on the ceiling and walls of the microfluidic channels. Channels were then flushed with EGM-2 and the devices were incubated at 37° C. under 5% CO2 for 24 hours to promote HUVEC monolayer formation on all exposed surfaces of the microchannel. In some cases, the medium was supplemented with one or more inflammatory cytokines (e.g., 5 or 100 ng/ml TNF-α (Sigma)) to activate the HUVEC monolayer. Fluorescence microscopy was performed on endothelium that was fixed with 4% formaldehyde (Sigma) and stained with antibodies against TF (Santa Cruz), vWF (Abeam), VE-Cadherin (Santa Cruz), followed by counterstaining with phalloidin and DAPI (Invitrogen).

HUVECs and platelets [1] = assay: Platelet adhesion and dynamics on TNF-α stimulated endothelium (living or fixed), whole blood perfusion; settings: for platelet aggregation pattern / Aggregation Index (AI) / translocation and embolization of thrombi / Embolization Index (EI): HUVEC, TNF-α 0, 5, 100 ng/ml
Method: 500 microliters (“μL”) of whole blood are pipetted into a fluid reservoir fitted to one end of a microchannel. Platelets are labeled with human CD41-PE antibody (e.g., 10 μL/mL from Invitrogen) that is directly added to the blood samples and incubated at room temperature for 10 minutes. Fluorescently labeled fibrinogen (e.g., 10 μg/mL from Life Sciences) is added, if required. Blood is pulled through the device (e.g., 30 μL/min) via tubing at an outlet using a syringe pump (e.g., PHD Ultra™ CP, Harvard Apparatus), resulting in an arterial shear rate of 750 s^−1. After two minutes, blood is supplemented with 100 millimolars (“mM”) calcium (“CaCl2”) and 75 mM magnesium (“MgCl2”) to support coagulation-activated blood clotting (e.g., 100 μL/mL).
Platelets are visualized using time-lapse fluorescence imaging (e.g., 20×, NA 0.4). A time series of a 10-frame panorama (e.g., 6 mm long×0.665 mm wide region of a microchannel), at a lapse of every 30 seconds is recorded. The resulting image stack is maximum intensity projected along time, thresholded, segmented, and cropped to a central 200 microns (“μm”) of the channel width for analysis. Finally, platelet coverage is computed from the binary image as the ratio of bright pixels to the total number of pixels in the image.
as §1
To explore whether the fixed endothelium in the microfluidic devices retains the ability to promote hemostasis, recalcified citrated whole blood (coagulation activated) is immediately perfused through a microfluidic channel lined by the fixed endothelium and preserved for 24-36 hours. Platelet adhesion is analyzed for 15 minutes of flow.
Specifically, the analysis includes a method to quantitate platelet function in flow chambers and microfluidic devices that has been primarily limited to analyzing platelet adhesion on bare collagen surfaces. To analyze platelet-endothelial dynamics that will act as a robust readout of physiologically-relevant clotting, an automated imaging program creates an image time-series, K(x, y, t), containing a 10-frame panorama in space. Images are acquired at a frame rate of 2 panoramic images per minute, for a total time of 15 minutes. A non-dimensional stochastic index is derived to quantitate platelet endothelial dynamics (“P-E”), which is the interpercentile range of a coefficient of variance of the image time-series: P-E=range(CV(K(x,y,t) (1) A feature of this analytical readout is that instead of an “ensemble averaging,” the method incorporates the cell-surface interactions at the pixel level and quantitates statistical “dispersion” of interactions.
When the device is perfused with whole blood, thrombi that are rich in platelets and fibrin form on the surface (FIG. 65C). The spatiotemporal dynamics of fluorescent platelet activity during formation of these thrombi on the endothelial surface was analyzed by time-lapse imaging. As flow was stable for at least 15 min, all experiments were carried out within the first 15 minutes. In some embodiments, blood might begin to clot in the tubing connected to the chip at later times (leading to decreased perfusion rates). […]

HUVECs and platelets [2] = assay: as above; settings: TNF-α 5 ng/ml before fixation; kept 1 day or 5 days; versus no TNF-α
[3] = TNF-α before fixation, versus untreated

tumor necrosis factor-α [TNF-α]
ICAM-1 expression on living endothelium (HUVECs; HUVECs stimulated with various doses of TNF-α): increased with increase in TNF concentration; also recorded: dose-dependent activation of ICAM-1; also recorded: dose-dependent surface expression of adhesion molecule ICAM-1; also recorded: increased in a dose-dependent manner | tissue factor (TF) expression on living endothelium (HUVECs; HUVECs, TNF-α 5 or 100 ng/ml): increase in the endothelial expression | von Willebrand Factor (vWF) expression on living endothelium (HUVECs; HUVECs, TNF-α 5 or 100 ng/ml): increase in the endothelial expression | VCAM-1 immunofluorescence on fixed endothelium (HUVECs; TNF-α 0, 5, 100 ng/ml for about 18 hours before fixation): dose-dependent increase | ICAM-1 immunofluorescence on fixed endothelium (HUVECs; TNF-α 0, 5, 100 ng/ml for about 18 hours before fixation, normalized to untreated): dose-dependent increase | VWF immunofluorescence on fixed endothelium (HUVECs; [3]): dose-dependent increase; also recorded: higher levels | tissue factor immunofluorescence on fixed endothelium (HUVECs; [3]): dose-dependent increase; also recorded: higher levels | platelet aggregation pattern / Aggregation Index (AI) (HUVECs and platelets [1]): heterogeneous and fluctuated in a dose-dependent manner; also recorded: varied depending on the dose of TNF-α | translocation and embolization of thrombi / Embolization Index (EI) (HUVECs and platelets [1]): great variation in the fluorescent signal over time and space; also recorded: increased with increasing doses | platelet aggregation pattern / Aggregation Index (AI) (HUVECs and platelets [1]; listed as TNFα): rise of AI with increasing TNFα dose | translocation and embolization of thrombi / Embolization Index (EI) (HUVECs and platelets [1]; listed as TNFα): increased in a TNFα dose-dependent manner | area-averaged platelet adhesion rate on living HUVECs (HUVECs and platelets [1]; TNF-α stimulated HUVECs (TNF+; TNF++) versus unstimulated): increase in platelet adhesion | platelet dynamics (TPD, SPD) on fixed HUVECs (HUVECs and platelets [1]; TNF-α treated and fixed, versus fixed collagen or untreated fixed endothelium): elevated | platelet coverage on fixed endothelium (HUVECs and platelets [1]; endothelium treated with increasing doses of TNF-α prior to fixation): increases in a TNF-α dose-dependent manner; also recorded: dose-dependent increase in platelet surface adhesion; also recorded: dose-dependent increase in surface coverage of platelet-rich thrombi | platelet-endothelial dynamics (P-E; spatial and temporal dispersion) (HUVECs and platelets [1]; living endothelium stimulated with TNF-α): increase in a TNF-α dose dependent manner; also recorded: significant fluctuations; also recorded: TNF-α dose-dependent increase in both the spatial and temporal dispersion | platelet coverage / adhesion on living endothelium (HUVECs and platelets [1]; living endothelium stimulated with TNF-α before blood flow): increases in a TNF-α dose-dependent manner; also recorded: platelet adhesion again occurs; also recorded: platelet adhesion and aggregation again resulted | platelet adhesion rate on fixed HUVECs (HUVECs and platelets [2]): significantly higher
